US4448763A, “Alteration of gallium biodistribution using indium complexes for enhanced early imaging” (priority 1980, dated 1984)

Columns and labels:
[1] = Imaging of 67Ga distribution in non-tumored rats, clearing agent six hours post dosing; assay type: in vivo, male Sprague Dawley rats
From the text: Initial studies used non-tumored male Sprague Dawley rats weighing between 250 and 300 grams. […] In all imaging studies, the animals were anesthetized by intraperitoneal injection of urethane (1 gm/Kg), and the left external jugular vein cannulated as a dosing site. The animals were then positioned under the detection of the γ-camera (Union Carbide; CLEON 720 Large Field Gamma Camera coupled with a CLEON 110 Image Processor) and images were obtained periodically.

[2] = Blood clearance of 67Ga (external blood loop), clearing agent given six hours after radiopharmaceutical; assay type: in vivo, male Sprague Dawley rats; design: % Increase in Blood Activity / Net Decrease in blood activity / % Decrease in Blood Activity: concentration or dose not given beside the values; details: for % Decrease in Blood Activity: 67Ga blood activity, clearing agent six hours after injection of radiopharmaceutical; for Net Decrease in blood activity / change in blood activity (in words) / % Increase in Blood Activity: clearing agent six hours after radiopharmaceutical; for % Increase in Blood Activity: rise following the initial drop
[3] = Blood clearance of 67Ga (external blood loop), clearing agent given two hours after radiopharmaceutical; assay type: in vivo, male Sprague Dawley rats
Description: Relative tissue concentrations are monitored by external imaging.
For blood clearance studies, male Sprague Dawley rats weighing 250-300 grams were used. The animals were anesthetized by peritoneal injection of an aqueous solution of urethan (1 gm/Kg). The right carotid artery and left jugular vein were exposed and an external blood loop (PE-50 tubing; volume.perspectiveto.0.14 ml) was inserted between the vessels. […] The right external jugular vein was then exposed and cannulated as an injection site. The animal was placed in a lead cradle and the blood loop inserted into the shielded well of a sodium iodide.thallium crystal. The animal received an injection of carrier-free gallium citrate (100-120 μCi) via the jugular cannula. […] Six hours post injection, the animal received a second injection containing one of the clearing agents (.perspectiveto.7.2 mmole/Kg). In subsequent experiments, clearing agents were administered two hours after or simultaneously with the radioactive dose.

5123C hepatoma [4] = test: Imaging of 67Ga distribution in tumored rats, clearing agent six hours after radiopharmaceutical
[5] = relatively large doses; cited from earlier work
5123C hepatoma [6] = test: Imaging of 67Ga distribution in tumored rats, clearing agent two hours after radiopharmaceutical; assay type: in vivo, male Buffalo rats
Description: FIGS. 3A-3C are scans (Union Carbide Cleon model 720 large field gamma camera) of Buffalo rats bearing implanted 5123C hepatomas.
At this point, the rat on the left received carrier gallium citrate (3.3 mg/Kg) and the rat on the right received indium citrate (2.1 mg/Kg).
Initial studies used non-tumored male Sprague Dawley rats weighing between 250 and 300 grams. Subsequent studies in tumored rats used male Buffalo rats bearing a 5123C hepatoma (The tumor line was initiated from donor animals donated by Drs. R. L. Hayes and B. Byrd of the Oak Ridge Associated Universities). In all imaging studies, the animals were anesthetized by intraperitoneal injection of urethane (1 gm/Kg), and the left external jugular vein cannulated as a dosing site. The animals were then positioned under the detection of the γ-camera (Union Carbide; CLEON 720 Large Field Gamma Camera coupled with a CLEON 110 Image Processor) and images were obtained periodically.
When the clearing agent was given two hours post radiopharmaceutical dosing, there were significant changes in gallium-67 distribution (FIG. 3). […] The results from use of indium citrate were somewhat more dramatic in that the activity is greatly diminished throughout the soft tissue regions. […] The most significant distributional change, however, is the obvious increase in tumor activity. […] To test this hypothesis, indium citrate was given with gallium-67 citrate as a single solution. […] Twenty minutes after the mixed dose is given, there is little activity outside the kidneys, bladder, tumor and bone. After two hours, there is essentially no activity in the animal other than in the above mentioned regions.

[7] = in vivo; cited from earlier work
[8] = cited from earlier work
[9] = cited from earlier work; remark: listed apart in the source
[10] = Blood activity-time curve of carrier-free gallium-67 citrate, no clearing agent; assay type: in vivo, normal Sprague Dawley rat; details: single i.v.
From the text: In this study, an external blood-loop technique (Int J of Appl Radiat Isot 29: 189-190, 1978) is used to monitor blood activity of the radiopharmaceutical as a function of time. Relative tissue concentrations are monitored by external imaging.
For blood clearance studies, male Sprague Dawley rats weighing 250-300 grams were used. The animals were anesthetized by peritoneal injection of an aqueous solution of urethan (1 gm/Kg). The right carotid artery and left jugular vein were exposed and an external blood loop (PE-50 tubing; volume.perspectiveto.0.14 ml) was inserted between the vessels. Blood was diverted from the artery, through the loop, and back to the animal via the vein (Int J of Appl Radiat Isot 29: 189-190, 1978). The right external jugular vein was then exposed and cannulated as an injection site. The animal was placed in a lead cradle and the blood loop inserted into the shielded well of a sodium iodide.thallium crystal. The animal received an injection of carrier-free gallium citrate (100-120 μCi) via the jugular cannula. Blood activity within the loop was continuously monitored as a function of time using a Packard Model 9012 Multi-channel Analyzer/Multi-scaler system (Packard Instrument Co., Downersville, Ill.). Six hours post injection, the animal received a second injection containing one of the clearing agents (.perspectiveto.7.2 mmole/Kg). […]

induced abscesses = details: rabbits bearing induced abscesses; cited from earlier work
[11] = versus gallium alone; cited from earlier work
[12] = clearing agent two hours after radiopharmaceutical
[13] = clearing agent two hours post radiopharmaceutical, gallium citrate 3 mg/Kg, […] 2.1 mg/Kg

O=C([O-])CC(O)(CC(=O)[O-])C(=O)[O-].[Ga+3] [Gallium, gallium citrate]
redistribution of radioactivity (imaging) [1]: shifted the radioactivity out of the blood/soft tissue regions and into the kidneys and the bladder | % Decrease in Blood Activity [2]: 40% | % Decrease in Blood Activity ([2]; listed as non-radioactive gallium): approximately 40% | Net Decrease in blood activity [2]: 25% | change in blood activity (in words) [2]: decrease very rapidly | blood activity reduction vs no clearing agent ([2]; eight hours post radiopharmaceutical dosing, gallium 3.3 mg/Kg at six hours): approximately 25% | % Increase in Blood Activity [2]: 15% | blood activity cleared [3, 12]: 78% | subsequent rise in blood activity (in words) [3, 12]: characteristic rise in activity | net clearance of blood activity ([3]; two hours after radiopharmaceutical, gallium 3.3 mg/Kg): 70% | redistribution of radioactivity outside tumor (imaging) (5123C hepatoma [4]; gallium citrate 3 mg/Kg): less dramatic effect | loss of activity from the tumor (imaging) (5123C hepatoma [4]; gallium citrate 3 mg/Kg, compared with high dose): much less | redistribution of radioactivity outside tumor (imaging) (5123C hepatoma [4]; gallium citrate 15 mg/Kg): obvious redistributions of radioactivity | tumor activity (imaging) (5123C hepatoma [4]; gallium citrate 15 mg/Kg): tumor activity was observed to decrease | effect on blood and tumor activity [5]: decrease blood activity without significantly reducing tumor activity | clearing of soft tissue / abdominal activity (imaging) (5123C hepatoma [6]; [13]): some clearing in the upper abdomen and in regions of the lower abdomen | tumor activity (imaging) (5123C hepatoma [6]; [13]): little loss of activity from the tumor region | activity bound within tumors (imaging, summary) (5123C hepatoma [6]; moderate doses of carrier gallium, […] two hours after radiopharmaceutical): obviously affected

CC(=O)[O-].CC(=O)[O-].CC(=O)[O-].[Tl+3] [Thallium, thallium triacetate]
redistribution of radioactivity (imaging) [1]: no significant redistribution of the radioactivity | % Decrease in Blood Activity [2]: 0% | Net Decrease in blood activity [2]: 0% | change in blood activity (in words) [2]: no change in blood activity | % Increase in Blood Activity [2]: 0%

O=C([O-])CC(O)(CC(=O)[O-])C(=O)[O-].[Sc+3] [Scandium citrate]
hemolytic anemia [7]: severe hemolytic anemia | tumor to blood and tumor to tissue ratios ([8]; gallium-67 and scandium citrates injected simultaneously): extremely high tumor to blood and tumor to tissue ratios | effect upon gallium binding in tumors ([8]; in vivo): little or no effect upon gallium binding in tumors

O=C([O-])CC(O)(CC(=O)[O-])C(=O)[O-].[67Ga+3] [gallium-67 citrate]
time of maximum gallium activity in tumors ([9]; after intravenous administration): eighteen | plasma / blood and soft tissue protein binding ([9]; given in very low doses): extensively bound | clearing from blood and soft tissue binding sites ([9]; in vivo): slow process | radiation dose ([9]; prolonged retention of 67Ga in the body): relatively high radiation dose | t1/2 of very rapid component of blood curve [10]: 12 s | time to completion of rapid distribution process ([10]; after dosing): four to six

CC(O)C(=O)[O][Al]([O]C(=O)C(C)O)[O]C(=O)C(C)O (centres unmarked) [Aluminum, aluminum lactate]
redistribution of radioactivity (imaging) [1]: no significant redistribution of the radioactivity | % Decrease in Blood Activity [2]: 9% | Net Decrease in blood activity [2]: 6% | % Increase in Blood Activity [2]: 3%

iron dextran
clearing of gallium and abscess uptake (induced abscesses): clearing of gallium with enhanced abscess uptake of gallium

CC(=O)N(O)CCCCCNC(=O)CCC(=O)N(O)CCCCCNC(=O)CCC(=O)N(O)CCCCCN [desferoxamine]
renal elimination rate of gallium desferoxamine complex [11]: rate greater than that observed for gallium alone
